Test results reported in ChEMBL document CHEMBL6153040, “Discovery of the salicylaldehyde-based compound DDO-02267 as a lysine-targeting covalent inhibitor of ALKBH5” (Eur J Med Chem, 2025).

What was measured:
RNA demethylase ALKBH5 [1] = target: T1, RNA demethylase ALKBH5 (Homo sapiens, UniProt Q6P6C2); experiment: Induction of thermal stabilization of wild type ALKBH5 (66 to 292 residues) (unknown origin) extracted from Escherichia coli BL21 (DE3) cells assessed as melting temperature by thermal shift assay (reference value: 47.30 degreeC)
Target sequence in this assay (Q6P6C2 2-394 limits assumed): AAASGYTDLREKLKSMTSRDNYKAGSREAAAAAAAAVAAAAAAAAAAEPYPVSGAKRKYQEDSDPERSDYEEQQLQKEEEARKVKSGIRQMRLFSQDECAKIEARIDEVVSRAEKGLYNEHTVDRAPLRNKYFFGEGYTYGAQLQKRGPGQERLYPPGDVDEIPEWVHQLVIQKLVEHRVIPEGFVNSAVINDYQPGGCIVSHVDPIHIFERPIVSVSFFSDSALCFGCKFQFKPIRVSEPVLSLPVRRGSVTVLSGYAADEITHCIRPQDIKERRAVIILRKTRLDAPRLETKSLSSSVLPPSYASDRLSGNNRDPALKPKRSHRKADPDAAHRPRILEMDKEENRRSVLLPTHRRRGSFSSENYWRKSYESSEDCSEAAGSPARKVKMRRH

MOLM-13 = experiment: Induction of apoptosis in human MOLM-13 cells assessed as late apoptotic cells at 40 uM incubated for 72 hrs by Annexin V FITC/PI staining based flow cytometry analysis (reference value: 4.28 %); assay type: functional
RNA demethylase ALKBH5 [2] = target: T1, RNA demethylase ALKBH5; experiment: Inhibition of ALKBH5 (66 to 292 residues) (unknown origin) extracted from Escherichia coli BL21 (DE3) cells using m6A ssDNA as substrate assessed as Kinact/Ki ratio measured after 6 hrs by fluorescence polarization assay
Target sequence in this assay (Q6P6C2 2-394 limits assumed): as above

RNA demethylase ALKBH5 [3] = target: T1, RNA demethylase ALKBH5; experiment: Inhibition of ALKBH5 (66 to 292 residues) (unknown origin) extracted from Escherichia coli BL21 (DE3) cells using m6A ssDNA as substrate assessed as inactivation constant (Ki) measured after 6 hrs by fluorescence polarization assay
Target sequence in this assay (Q6P6C2 whole entry, the tested form may be a part): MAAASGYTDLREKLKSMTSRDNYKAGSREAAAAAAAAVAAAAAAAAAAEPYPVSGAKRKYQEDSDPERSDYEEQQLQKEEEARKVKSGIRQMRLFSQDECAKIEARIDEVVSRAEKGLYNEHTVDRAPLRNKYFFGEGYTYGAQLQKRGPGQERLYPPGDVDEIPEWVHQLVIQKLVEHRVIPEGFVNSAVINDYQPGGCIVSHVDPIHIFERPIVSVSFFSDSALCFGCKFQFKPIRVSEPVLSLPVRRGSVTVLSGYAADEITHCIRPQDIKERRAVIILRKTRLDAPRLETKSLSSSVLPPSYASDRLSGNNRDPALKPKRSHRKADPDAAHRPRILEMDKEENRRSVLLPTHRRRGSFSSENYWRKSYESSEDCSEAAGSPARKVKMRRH

[4] = Selectivity ratio of IC50 for FTO (32 to 505 residues) (unknown origin) extracted from Escherichia coli BL21 (DE3) cells to IC50 for ALKBH5 (66 to 292 residues) (unknown origin) extracted from Escherichia coli BL21 (DE3) cells by fluorescence polarization assay
RNA demethylase ALKBH5 [5] = target: T1, RNA demethylase ALKBH5; experiment: Binding affinity to ALKBH5 (66 to 292 residues) (unknown origin) extracted from Escherichia coli BL21 (DE3) cells assessed as dissociation constant incubated for 3 hrs by MST analysis
Target sequence in this assay (Q6P6C2 whole entry, the tested form may be a part): as above

RNA demethylase ALKBH5 [6] = target: T1, RNA demethylase ALKBH5; experiment: Inhibition of ALKBH5 (66 to 292 residues) (unknown origin) extracted from Escherichia coli BL21 (DE3) cells using m6A ssDNA as substrate measured after 1 hrs by fluorescence polarization assay
Target sequence in this assay (Q6P6C2 whole entry, the tested form may be a part): as above

RNA demethylase ALKBH5 [7] = target: T1, RNA demethylase ALKBH5; experiment: Inhibition of ALKBH5 (66 to 292 residues) (unknown origin) extracted from Escherichia coli BL21 (DE3) cells using m6A ssDNA as substrate incubated for 2 hrs by TBE-PAGE based restriction enzyme digestion assay
Target sequence in this assay (Q6P6C2 whole entry, the tested form may be a part): as above

**Q.** What does the source list for `O=Cc1cc(S(=O)(=O)NC(=O)c2cc(C(=O)O)ccn2)c2ccccc2c1O`?
**A.** Tm (RNA demethylase ALKBH5 [1]): 49.9 °C; Activity (MOLM-13): 4.62%; Ratio (RNA demethylase ALKBH5 [2]): 0.03 µM⁻¹ min⁻¹; Ki (RNA demethylase ALKBH5 [3]): 0.41 µM; Ratio IC50 [4]: 20; Kd (RNA demethylase ALKBH5 [5]): 1.03 µM; IC50 (RNA demethylase ALKBH5 [6]): 0.48 µM; IC50 (RNA demethylase ALKBH5 [7]): 2.53 µM
